Here are results for 1 compound from article PMC11848821, “Acrolein-Mediated Conversion of Lysine to Electrophilic Heterocycles for Protein Diversification and Toxicity Profiling” (Journal of the American Chemical Society, 2025).

Assay type in all cases: binding
In one test the target is T1, lysozyme human (Homo sapiens, UniProt P61626).
T1 construct: gene LYZ; commercial protein, mature
T1 sequence (P61626 19-148): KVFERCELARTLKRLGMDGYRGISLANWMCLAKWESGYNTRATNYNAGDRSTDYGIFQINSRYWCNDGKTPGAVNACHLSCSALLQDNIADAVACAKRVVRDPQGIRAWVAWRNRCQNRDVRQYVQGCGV
The experiment in a line: intact protein MS and MS/MS. The conditions noted are these: covalent; lysine adduct (FDP).

In the next test the target is T2, lysozyme chicken (Gallus gallus, UniProt P00698).
T2 construct: gene LYZ
The experiment in a line: intact protein MS and MS/MS. The conditions noted are these: covalent; lysine adduct (FDP).

Test [1] has as its target T3, bovine serum albumin (BSA) (Bos taurus, UniProt P02769).
T3 construct: gene ALB; commercial native protein, mature
The experiment in a line: in-gel fluorescence after thiol-FITC addition to the adduct. The note with it: covalent; lysine adduct (FDP); 12 h.

Structures are written as SMILES.

T3 sequence (P02769 25-607): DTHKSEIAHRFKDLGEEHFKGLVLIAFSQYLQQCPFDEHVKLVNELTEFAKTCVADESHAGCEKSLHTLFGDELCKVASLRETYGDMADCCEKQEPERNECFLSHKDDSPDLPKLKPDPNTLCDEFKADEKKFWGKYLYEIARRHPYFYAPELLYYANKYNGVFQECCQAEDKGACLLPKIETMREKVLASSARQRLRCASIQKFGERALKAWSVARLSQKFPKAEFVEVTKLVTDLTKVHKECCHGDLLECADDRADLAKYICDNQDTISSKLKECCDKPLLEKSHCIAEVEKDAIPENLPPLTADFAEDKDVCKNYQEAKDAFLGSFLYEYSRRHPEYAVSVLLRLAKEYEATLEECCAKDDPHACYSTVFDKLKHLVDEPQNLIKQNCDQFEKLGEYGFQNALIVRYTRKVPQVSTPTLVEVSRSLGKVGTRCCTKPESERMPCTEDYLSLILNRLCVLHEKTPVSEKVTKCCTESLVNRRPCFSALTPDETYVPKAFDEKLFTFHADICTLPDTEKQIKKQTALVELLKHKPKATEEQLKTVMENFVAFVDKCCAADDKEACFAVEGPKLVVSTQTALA
T2 sequence (P00698 19-147): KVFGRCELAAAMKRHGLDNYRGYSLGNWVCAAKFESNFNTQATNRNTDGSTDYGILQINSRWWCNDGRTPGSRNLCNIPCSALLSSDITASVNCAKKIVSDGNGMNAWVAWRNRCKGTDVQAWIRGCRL

For `C=CC=O` [acrolein], the “intact protein MS and MS/MS” value at lysozyme human is “ribonuclease A, lysozyme chicken, lysozyme human, β-lactoglobulin, and apo-Transferrin”; on lysozyme chicken, “ribonuclease A, lysozyme chicken, lysozyme human, β-lactoglobulin, and apo-Transferrin”. For the same compound, the “in-gel fluorescence after thiol-FITC addition to the adduct” value in test [1] was “formation of FDP-lysine and labeling of Apo-transferrin, BSA, and myoglobin with FITC fluorophore”.
